Measured values reported in ChEMBL document CHEMBL1240428, “Conventional and microwave assisted synthesis of some new N-[(4-oxo-2-substituted aryl -1, 3-thiazolidine)-acetamidyl]-5-nitroindazoles and its antimicrobial activity” (2010).
Values after ≈ are worked out from the molar mass of the structure shown.

Experiments:
[1] = tested on: Escherichia coli; experiment: Antibacterial activity against Escherichia coli at 100 ug/mL; assay type: functional; details: read-out: IZ
[2] = tested on: Escherichia coli; experiment: Antibacterial activity against Escherichia coli at 50 ug/mL; assay type: functional; details: read-out: IZ
[3] = tested on: Fusarium oxysporum; experiment: Antifungal activity against Fusarium oxysporum; assay type: functional
[4] = tested on: Salmonella typhi; experiment: Antibacterial activity against Salmonella typhi at 50 ug/mL; details: read-out: IZ
[5] = tested on: Fusarium oxysporum; experiment: Antifungal activity against Fusarium oxysporum at 50 ug/mL; assay type: functional; details: read-out: IZ
[6] = tested on: Penicillium citrinum; experiment: Antifungal activity against Penicillium citrinum at 100 ug/mL; assay type: functional; details: read-out: IZ
[7] = tested on: Aspergillus flavus; experiment: Antifungal activity against Aspergillus flavus; assay type: functional
[8] = tested on: Bacillus subtilis; experiment: Antibacterial activity against Bacillus subtilis at 50 ug/mL; assay type: functional; details: read-out: IZ
[9] = tested on: Salmonella typhi; experiment: Antibacterial activity against Salmonella typhi
[10] = tested on: Bacillus subtilis; experiment: Antibacterial activity against Bacillus subtilis at 100 ug/mL; assay type: functional; details: read-out: IZ
[11] = tested on: Escherichia coli; experiment: Antibacterial activity against Escherichia coli; assay type: functional
[12] = tested on: Fusarium oxysporum; experiment: Antifungal activity against Fusarium oxysporum at 100 ug/mL; assay type: functional; details: read-out: IZ
[13] = tested on: Aspergillus flavus; experiment: Antifungal activity against Aspergillus flavus at 100 ug/mL; assay type: functional; details: read-out: IZ
[14] = tested on: Penicillium citrinum; experiment: Antifungal activity against Penicillium citrinum; assay type: functional
[15] = tested on: Bacillus subtilis; experiment: Antibacterial activity against Bacillus subtilis; assay type: functional
[16] = tested on: Aspergillus flavus; experiment: Antifungal activity against Aspergillus flavus at 50 ug/mL; assay type: functional; details: read-out: IZ
[17] = tested on: Salmonella typhi; experiment: Antibacterial activity against Salmonella typhi at 100 ug/mL; details: read-out: IZ
[18] = tested on: Penicillium citrinum; experiment: Antifungal activity against Penicillium citrinum at 50 ug/mL; assay type: functional; details: read-out: IZ

MIC [3] [µg/mL]	MIC [7] [µg/mL]	MIC [9] [µg/mL]	MIC [11] [µg/mL]	MIC [14] [µg/mL]	MIC [15] [µg/mL]	SMILES	zone of inhibition at 100 µg/mL [1] [mm]	zone of inhibition at 50 µg/mL [2] [mm]	zone of inhibition at 50 µg/mL [4] [mm]	zone of inhibition at 50 µg/mL [5] [mm]	zone of inhibition at 100 µg/mL [6] [mm]	zone of inhibition at 50 µg/mL [8] [mm]	zone of inhibition at 100 µg/mL [10] [mm]	zone of inhibition at 100 µg/mL [12] [mm]	zone of inhibition at 100 µg/mL [13] [mm]	zone of inhibition at 50 µg/mL [16] [mm]	zone of inhibition at 100 µg/mL [17] [mm]	zone of inhibition at 50 µg/mL [18] [mm]
20 (≈ 48.6 µM)	23 (≈ 55.9 µM)	30 (≈ 72.9 µM)	25 (≈ 60.8 µM)	32 (≈ 77.8 µM)	40 (≈ 97.2 µM)	Cc1ccc(C2SCC(=O)N2NC(=O)Cn2ncc3cc([N+](=O)[O-])ccc32)cc1 (stereo unspecified)	14.8	12	10.1	12.9	13.2	9	12.2	15.4	14	11.1	13.3	10
18 (≈ 40.9 µM)	22 (≈ 49.9 µM)	25 (≈ 56.8 µM)	22 (≈ 49.9 µM)	30 (≈ 68.1 µM)	36 (≈ 81.7 µM)	CN(C)c1ccc(C2SCC(=O)N2NC(=O)Cn2ncc3cc([N+](=O)[O-])ccc32)cc1 (stereo unspecified)	16	13.5	11.5	13.9	14.5	10.4	13.8	16.8	15.4	12.6	14.9	11.4
